Key:
RD cells = assay: Detection of cytotoxicity in RD cells (CellTiter-Glo); assay type: cell-based; details: 4 days, CellTiter-Glo, median toxic dose
Protocol: Detection of Cytotoxicity:
(1) The compound to be tested was diluted to a concentration of 400 μM with the cell maintenance solution, and 3-fold gradient dilution was carried out to obtain 10 concentrations in total.
(2) The diluted compound was added to a 96-well plate with white wall and transparent bottom, with 100 μL per well. An equal volume of the cell maintenance solution was added to the cell control group.
(3) RD cells were inoculated into the above 96-well plate at a concentration of 1*10^5/mL, with 100 μL per well, to reach a final volume of 200 μL per well, and the final concentration of drug was 0.5 times the pretreatment concentration.
(4) The RD cells were cultured at 37° C. for 4 days for testing.
(5) The Buffer of CellTiter-Glo® luminescent cell viability assay reagent was mixed with the substrate in the dark to prepare a working solution.
(§1) (6) The culture medium in the plate was discarded, the plate was dried by patting, 100 μL of the detection reagent was added to each well, and the 96-well plate was shaken on an orbital shaker for 4 minutes to induce cell lysis. After keeping in the dark and subjecting to signal stabilization for 15 minutes, the chemiluminescence unit was detected, and the plate reading program was performed according to the CellTiter-Glo preset program.
(§2) The formula for calculating the inhibition rates of drug at different dilution degrees was as follows: inhibition rate (%)=(average value of cell control group−value of experimental group)/(average value of cell control group−minimum value of experimental group)*100
(§3) The inhibition rate-concentration curve was fitted to S-curve by using origin8.0 software, and the IC50 value of the compound to be tested was calculated. The same method was used to calculate the TD50 value, and the selection index SI=TD50/IC50 was calculated according to the half maximal inhibitory concentration IC50 and the median toxic dose TD50.

[1] = system: Enterovirus 71 (EV71) H strain; assay: In vitro anti-EV71 activity (antiviral activity in RD cells, CellTiter-Glo); assay type: cell-based; details: for in vitro anti-EV71 activity, in words: EV71, RD cells; for IC50: Enterovirus A, 96 h, EV71 H strain, RD cells, 4 days, CellTiter-Glo, read-out: IC50
Protocol: According to the mass and molecular weight of the compound to be tested, the compound to be tested was dissolved to 100 mM (mmol/L) with DMSO.
Detection of Antiviral Activity:
(1) First, the compound to be tested was diluted to 800 μM with cell maintenance solution (DMEM+2% FBS, Gibco, catalog numbers: 11995-065, 1600-044), and three-fold gradient dilution was performed to prepare 10 concentrations in total. The diluted compound was added to a 96-well plate with white wall and transparent bottom, 50 μl per well. To both the cell control group and the virus control group, an equal volume of the cell maintenance solution was added.
(2) EV71 virus (purchased from ATCC) was taken out from the −80° C. refrigerator and equilibrated to room temperature.
(3) The virus seed was diluted with a virus growth solution (DMEM+2% FBS, Gibco, catalog numbers: 11995-065, 1600-044) to 100TCID50, the diluted virus seed was added to the 96-well plate of (1), with […] per well. The same volume of the virus growth solution was added to the cell control group.
(4) RD cells (purchased from ATCC) were inoculated at a concentration of 1*10^5/mL into the 96-well plate of (1), with 100 μL per well, to reach a final volume of 200 μL per well. The final concentration of drug was 0.25 times the initial concentration.
(5) RD cells were cultured at 37° C. for 4 days for testing.
(6) The Buffer of CellTiter-Glo® luminescent cell viability assay reagent (Promega) was mixed with the substrate in the dark to prepare a working solution.
as §1, with “(7)” for “(6)”, “detected by using MD5 microplate reader (Molecular Devices),” for “detected,”
The inhibition rate-concentration curve was fitted to S-curve by using origin8.0 software to calculate the IC50 value of the compound to be tested.
as §2, §3

| SMILES | TD50 (RD cells) | in vitro anti-EV71 activity, in words [1] | IC50 [1] | melting point |
| --- | --- | --- | --- | --- |
| CC(=O)/C=C/c1cnc2ccc(-c3cn[nH]c3)cc2c1Nc1cccc(C(F)(F)F)c1 [HTL-3-26, (E)-6-(1H-4-pyrazolyl)-4-[3-(trifluoromethyl)phenyl]aminoquinoline-3-butenone] | 1.43 ± 1.62 µM | moderate anti-EV71 activity | 0.85 ± 0.03 µM | 177 to 179 °C |
| O=c1oc2cnc3ccc(-c4cnc5ccccc5c4)cc3c2n1-c1cccc(C(F)(F)F)c1 [HTL-5-32, 8-(3-quinolyl)-1-[3-(trifluoromethyl)phenyl]oxazolo[5,4-c]quinolin-2(1H)-one] | 68.88 ± 0.13 µM | – | > 200 µM | 242 to 244 °C |
| CC(=O)/C=C/c1cnc2ccc(-c3ccc(F)nc3)cc2c1Nc1cccc(C(F)(F)F)c1 [HTL-3-43, (E)-6-[3-(6-fluoro)pyridyl]-4-[3-(trifluoromethyl)phenyl]aminoquinoline-3-butenone] | 2.23 ± 0.08 µM | – | > 200 µM | 133 to 134 °C |
| O=c1oc2cnc3ccc(-c4ccc(F)nc4)cc3c2n1-c1cccc(C(F)(F)F)c1 [HTL-5-28, 8-[3-(6-fluoro)pyridyl]-1-[3-(trifluoromethyl)phenyl]oxazolo[5,4-c]quinolin-2(1H)-one] | >200 µM | – | > 200 µM | 262 to 263 °C |
| C=CCNc1ccc(-c2ccc3ncc4ccc(=O)n(-c5cccc(C(F)(F)F)c5)c4c3c2)cn1 [HTL-7-28, 9-[3-(6-allylamino)pyridyl]-2-oxo-1-[3-(trifluoromethyl)phenyl]-1,2-dihydrobenzo[h][1,6]naphthyridine] | 0.23 ± 0.01 µM | – | 0.09 ± 0.01 µM | 142 to 146 °C |
| CC(C)(C)OC(=O)/C=C/c1ccc2ncc3oc(=O)n(-c4cccc(C(F)(F)F)c4)c3c2c1 [HTL-6-35, (E)-8-(2-tert-butoxycarbonyl-vinyl)-1-[3-(trifluoromethyl)phenyl]oxazolo[5,4-c]quinolin-2(1H)-one] | 76.02 ± 11.52 µM | – | > 200 µM | 186 to 187 °C |
| N#CC/C=C/c1ccc2ncc3oc(=O)n(-c4cccc(C(F)(F)F)c4)c3c2c1 [HTL-6-31, (E)-8-(3-cyano-propenyl)-1-[3-(trifluoromethyl)phenyl]oxazolo[5,4-c]quinolin-2(1H)-one] | 9.20 ± 2.34 µM | – | > 200 µM | 177 to 179 °C |
| CC(=O)/C=C/c1cnc2ccc(-c3ccc(C(C)C)cc3)cc2c1Nc1cccc(C(F)(F)F)c1 [HTL-3-39, (E)-6-(4-isopropyl)phenyl-4-[3-(trifluoromethyl)phenyl]aminoquinoline-3-butenone] | 1.75 ± 0.73 µM | – | > 200 µM | 143 to 144 °C |
| O=c1oc2cnc3ccc(-c4ccoc4)cc3c2n1-c1cccc(C(F)(F)F)c1 [HTL-5-25, 8-(3-furyl)-1-[3-(trifluoromethyl)phenyl]oxazolo[5,4-c]quinolin-2(1H)-one] | >200 µM | – | > 200 µM | 276 to 277 °C |
| CC(=O)/C=C/c1cnc2ccc(-c3ccc(F)cc3F)cc2c1Nc1cccc(C(F)(F)F)c1 [HTL-3-33, (E)-6-(2,4-difluoro)phenyl-4-[3-(trifluoromethyl)phenyl]aminoquinoline-3-butenone] | 0.72 ± 0.66 µM | – | > 200 µM | 162 to 164 °C |
| CC(=O)/C=C/c1cnc2ccc(-c3ccc(Cl)cc3)cc2c1Nc1cccc(C(F)(F)F)c1 [HTL-3-37, (E)-6-(4-chloro)phenyl-4-[3-(trifluoromethyl)phenyl]aminoquinoline-3-butenone] | 1.88 ± 0.46 µM | – | > 200 µM | 197 to 199 °C |
| CC(=O)/C=C/c1cnc2ccc(-c3ccc(N)nc3)cc2c1Nc1cccc(C(F)(F)F)c1 [HTL-2-34, (E)-6-[3-(6-amino)pyridyl]-4-[3-(trifluoromethyl)phenyl]aminoquinoline-3-butenone] | 4.99 ± 1.55 µM | moderate anti-EV71 activity | 1.78 ± 0.03 µM | 172 to 175 °C |
| CC(=O)/C=C/c1cnc2ccc(-c3cccs3)cc2c1Nc1cccc(C(F)(F)F)c1 [HTL-3-24, (E)-6-(2-thienyl)-4-[3-(trifluoromethyl)phenyl]aminoquinoline-3-butenone] | 1.35 ± 1.16 µM | – | > 200 µM | 181 to 185 °C |
| O=c1ccc2cnc3ccc(Nc4ccc(Cl)cc4)cc3c2n1-c1cccc(C(F)(F)F)c1 [HTL-6-25, 9-(4-chlorophenyl)imino-2-oxo-1-[3-(trifluoromethyl)phenyl]-1,2-dihydrobenzo[h][1,6]naphthyridine] | 4.56 ± 0.26 µM | – | > 200 µM | 212 to 213 °C |
| CCOc1ccc(-c2ccc3ncc4oc(=O)n(-c5cccc(C(F)(F)F)c5)c4c3c2)cc1 [HTL-5-27, 8-(4-ethoxy)phenyl-1-[3-(trifluoromethyl)phenyl]oxazolo[5,4-c]quinolin-2(1H)-one] | >200 µM | – | > 200 µM | 254 °C |
| CC(=O)/C=C/c1cnc2ccc(-c3cccc(N)c3)cc2c1Nc1cccc(C(F)(F)F)c1 [HTL-2-42, (E)-6-(3-aminophenyl)-4-[3-(trifluoromethyl)phenyl]aminoquinoline-3-butenone] | >200 µM | – | > 200 µM | 184 to 186 °C |
| O=C(Nc1ccc(-c2ccc3ncc4oc(=O)n(-c5cccc(C(F)(F)F)c5)c4c3c2)cn1)OCc1ccccc1 [HTL-7-23, 8-[3-(6-benzyloxyamido)pyridyl]-1-[3-(trifluoromethyl)phenyl]oxazolo[5,4-c]quinolin-2(1H)-one] | >200 µM | – | > 200 µM | 284 to 286 °C |
| CCOC(=O)/C=C/c1ccc2ncc3oc(=O)n(-c4cccc(C(F)(F)F)c4)c3c2c1 [WSX-1-13, (E)-8-(2-ethoxycarbonyl-vinyl)-1-[3-(trifluoromethyl)phenyl]oxazolo[5,4-c]quinolin-2(1H)-one] | 73.88 ± 3.52 µM | weak inhibitory activity | 100 ± 2.34 µM | 221 to 224 °C |
| CCCc1ccc(-c2ccc3ncc(/C=C/C(C)=O)c(Nc4cccc(C(F)(F)F)c4)c3c2)cc1 [HTL-3-40, (E)-6-(4-propyl)phenyl-4-[3-(trifluoromethyl)phenyl]aminoquinoline-3-butenone] | 0.83 ± 0.03 µM | – | > 200 µM | 166 to 169 °C |
| CC(=O)/C=C/c1cnc2ccc(-c3ccc(O)cc3)cc2c1Nc1cccc(C(F)(F)F)c1 [HTL-3-11, (E)-6-(4-hydroxy)phenyl-4-[3-(trifluoromethyl)phenyl]aminoquinoline-3-butenone] | >200 µM | – | > 200 µM | 218 to 222 °C |
| Cc1ccc(Nc2ccc3ncc4ccc(=O)n(-c5cccc(C(F)(F)F)c5)c4c3c2)cn1 [HTL-6-19, 9-[3-(6-methylpyridyl)]imino-2-oxo-1-[3-(trifluoromethyl)phenyl]-1,2-dihydrobenzo[h][1,6]naphthyridine] | 22.62 ± 2.15 µM | – | > 200 µM | 234 to 236 °C |
| CC(=O)/C=C/c1cnc2ccc(-c3cncc(C#N)c3)cc2c1Nc1cccc(C(F)(F)F)c1 [HTL-3-46, (E)-6-[3-(5-cyano)pyridyl]-4-[3-(trifluoromethyl)phenyl]aminoquinoline-3-butenone] | 3.59 ± 2.46 µM | – | > 200 µM | 227 to 229 °C |

From patent publication US20220220106A1, “QUINOLINE COMPOUNDS AND PHARMACEUTICAL COMPOSITIONS AND USES THEREOF” (Academy of Military Medical Sciences, priority 2019, published 2022)
